Compound: Cn1cncc1[C@@](N)(c1ccc(Cl)cc1)c1ccc2c(c1)c(-c1cccc(Cl)c1)cc(=O)n2C [Tipifarnib] + COc1cc2c(Oc3ccc(NC(=O)C4(C(=O)Nc5ccc(F)cc5)CC4)cc3F)ccnc2cc1OCCCN1CCOCC1 [Foretinib] (partner 0.25 µM)
Assay: relative viability (nuclei count vs DMSO), 5 days (fraction); higher = more cells survive
Method in brief: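 Lung cancer cell lines in 1536-well plates got either a single drug or a fixed anchor-drug dose together with five library-drug doses (not always all listed) in √10 steps, by pin tool, on the day after seeding. Nuclei were counted after 5 days, and relative viability is the treated-to-vehicle ratio of nuclei counts. Values are medians of duplicate plates.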

Cell Line	relative viability (first compound 0.01 µM)	relative viability (first compound 0.03162 µM)	relative viability (first compound 0.1 µM)	relative viability (first compound 0.3162 µM)	relative viability (first compound 1 µM)
LCLC-97TM1	1.03	0.852	0.898	0.802	0.685
HARA	1.1	0.828	0.96	0.951	0.269
HCC-78	0.58	0.546	0.491	0.513	0.461
NCI-H1666	0.923	0.888	0.866	0.873	0.748
NCI-H2347	1.34	0.76	0.723	0.756	0.528
NCI-H838	1.01	0.805	0.848	0.695	0.75
NCI-H2023	0.958	0.7	0.609	0.336	0.505
201T	1.13	1.09	1.02	0.839	0.875
NCI-H1915	1.01	0.816	0.606	0.593	0.577
NCI-H2009	1.3	1.11	0.84	0.645	0.7
BEN	0.609	0.686	0.529	0.484	0.379
PC-14	0.954	1.01	0.912	0.602	0.289
SK-MES-1	0.916	0.869	0.905	0.681	0.542
NCI-H727	1.04	0.875	0.795	0.976	0.944
NCI-H1355	1.12	0.94	0.855	0.694	0.734
NCI-H1975	0.936	0.967	0.939	0.604	0.568
LK-2	1.15	1.02	1.03	0.578	0.726
NCI-H661	1.03	1.03	0.936	0.793	0.83
HCC-366	1.04	0.995	0.586	0.631	0.121
HOP-62	0.809	0.671	0.464	0.305	0.542
NCI-H1944	0.842	0.803	0.561	0.472	0.459
SW 1573	1.12	0.873	0.657	0.498	0.173
LU99A	0.757	0.651	0.653	0.497	0.395
NCI-H647	1.44	0.78	0.95	0.379	0.534
A-427	1.19	1.06	1.06	0.873	0.927

Cell Line	relative viability (first compound 0.01 µM)	relative viability (first compound 0.03162 µM)	relative viability (first compound 0.1 µM)	relative viability (first compound 0.3162 µM)	relative viability (first compound 1 µM)
COR-L 105	1.18	0.872	0.897	0.504	0.604
NCI-H441	0.955	0.699	0.73	0.72	0.594
NCI-H2126	1.06	1.55	1.1	1.12	1.12
EBC-1	0.103	0.0929	0.0996	0.113	0.0971
NCI-H460	1	0.872	0.624	0.581	0.207
SK-LU-1	0.877	0.723	0.542	0.481	0.477
NCI-H322M	0.964	1.15	0.849	0.876	0.783
EKVX	0.818	0.767	0.811	0.705	0.324
NCI-H1734	0.902	0.832	0.729	0.458	0.487
SW 900	0.716	0.481	0.381	0.39	0.412
ABC-1	1.28	–	0.965	0.762	0.843
NCI-H520	0.978	0.614	0.681	0.506	0.351
EPLC-272H	0.68	0.631	0.569	0.443	0.257
UMC-11	0.856	0.725	0.612	0.616	0.578
NCI-H1993	0.832	0.716	0.589	0.605	0.548
NCI-H596	1.05	0.857	0.619	0.569	0.53
NCI-H1793	0.626	0.577	0.616	0.44	0.411
NCI-H1563	1.03	1.04	0.879	0.82	0.87
NCI-H1395	0.986	0.956	0.814	0.705	0.77
NCI-H1299	1.06	1.04	1	0.947	0.979
HCC-827	1.06	1.05	0.741	0.63	0.568
ChaGo-K-1	1.06	0.873	0.848	0.852	0.665
NCI-H2228	1.04	0.815	0.636	0.495	0.672
NCI-H2170	1.03	1.06	1.01	0.99	0.896
EMC-BAC-2	1.06	0.921	1	0.9	0.82

Cell Line	relative viability (first compound 0.01 µM)	relative viability (first compound 0.03162 µM)	relative viability (first compound 0.1 µM)	relative viability (first compound 0.3162 µM)	relative viability (first compound 1 µM)
A549	1.03	0.843	0.386	0.296	0.366
NCI-H23	1.04	0.873	0.759	0.688	0.511
RERF-LC-KJ	0.917	0.965	0.799	0.773	0.393
NCI-H358	0.884	0.761	0.563	0.433	0.296
LC-2-ad	0.968	0.896	0.807	0.609	0.657
HCC-15	0.967	0.917	0.785	0.635	0.595
NCI-H2405	1.06	1.03	1.03	0.993	0.923
LXF-289	0.998	0.966	0.858	0.825	0.824
CAL-12T	1.09	0.885	0.727	0.469	0.536
COR-L23	1.14	0.839	0.699	0.618	0.579
NCI-H1755	0.88	0.889	0.908	0.849	0.456
NCI-H1437	1.32	1.29	1.38	0.955	1.29
NCI-H2085	0.853	0.6	0.493	0.497	0.589
IA-LM	0.905	0.55	0.47	0.299	0.33
H3255	0.921	0.977	0.805	0.636	0.508
NCI-H650	1.21	0.999	0.934	0.749	0.704
LCLC-103H	0.865	0.869	0.59	0.548	0.418
LOU-NH91	0.943	1	0.83	0.695	0.693
NCI-H1650	0.766	0.633	0.668	0.424	0.554
NCI-H3122	0.957	0.796	0.744	0.693	0.544
PC-3 [JPC-3]	1.06	1.02	0.955	0.749	0.6
Calu-6	0.886	0.62	0.698	0.518	0.424
NCI-H1651	0.833	0.79	0.85	0.717	0.831
NCI-H2087	0.999	0.371	0.333	0.292	0.3
